How the values were obtained:
Format in all cases: functional
[1] = test system: Escherichia coli; experiment: Antibacterial activity against Escherichia coli assessed as reduction in bacterial growth after 24 hrs by two-fold serial dilution method
[2] = test system: Staphylococcus epidermidis; experiment: Antibacterial activity against Staphylococcus epidermidis assessed as reduction in bacterial growth after 24 hrs by two-fold serial dilution method
[3] = test system: Candida albicans; experiment: Antifungal activity against Candida albicans assessed as reduction in […] by two-fold serial dilution method
[4] = test system: Helicobacter pylori; experiment: Antibacterial activity against Helicobacter pylori 51 assessed as reduction in microbial growth after 24 hrs by two-fold serial dilution method

Compound	MIC [1]	MIC [2]	MIC [3]	MIC [4]	MIC50 [4]
Cc1ncc([N+](=O)[O-])n1CCO [METRONIDAZOLE]	–	–	–	4.3 µg/mL	11.8 µg/mL
O=c1c(-c2cc(Br)c(O)c(Br)c2)coc2c(Br)c(O)c(Br)c(O)c12	–	–	–	58.1 µg/mL	14.5 µg/mL
O=c1c(-c2cc(Br)c(O)c(Br)c2)coc2c(Br)c(O)ccc12	–	–	–	35.1 µg/mL	6.9 µg/mL
O=c1c(-c2cc(Cl)c(O)c(Cl)c2)coc2c(Cl)c(O)c(Cl)c(O)c12	> 50 µg/mL	> 50 µg/mL	> 50 µg/mL	–	–

The next lines start with the values.

MIC [1]	MIC [2]	MIC [3]	MIC [4]	MIC50 [4]	Compound
> 50 µg/mL	> 50 µg/mL	> 50 µg/mL	–	–	COc1cc2c(=O)c(-c3cc(Cl)c(O)c(Cl)c3)coc2cc1O
> 50 µg/mL	> 50 µg/mL	> 50 µg/mL	–	–	O=c1c(-c2cc(Cl)c(O)c(Cl)c2)coc2c(Cl)c(O)c(Cl)cc12
> 50 µg/mL	> 50 µg/mL	> 50 µg/mL	–	–	COc1cc2c(=O)c(-c3cc(Cl)c(O)c(Cl)c3)coc2c(Cl)c1O
> 50 µg/mL	> 50 µg/mL	> 50 µg/mL	–	–	O=c1c(-c2cc(Cl)c(O)c(Cl)c2)coc2cc(O)ccc12
> 50 µg/mL	> 50 µg/mL	> 50 µg/mL	–	–	O=c1c(-c2ccc(O)cc2)coc2c(Cl)c(O)c(O)c(Cl)c12
> 50 µg/mL	> 50 µg/mL	> 50 µg/mL	–	–	COc1cc2occ(-c3cc(Cl)c(O)c(Cl)c3)c(=O)c2cc1OC
> 50 µg/mL	> 50 µg/mL	> 50 µg/mL	–	–	O=c1c(-c2ccc(O)cc2)coc2c(Cl)c(O)c(Cl)c(O)c12

From ChEMBL document CHEMBL4699506, “Polyhalogenation of Isoflavonoids by the Termite-Associated Actinomadura sp. RB99” (2020)
